Test results from patent US20060004012A1, “Compounds, pharmaceutical compositions and methods for use in treating metabolic disorders” (priority 2004, published 2006).

Target: T1, human GPR40 (Homo sapiens, UniProt O14842)
T1 construct: expressed in transfected cells; host or cells: CHO cells, transiently transfected with Lipofectamine 2000 and co-transfected with an aequorin expression vector (Euroscreen)
Test: Cell-based aequorin assay using human GPR40
Conditions: activation of human GPR40; CHO cells transfected with GPR40 and aequorin expression vectors; aequorin luminescence, area-under-curve 2-20 seconds; read-out: Relative EC50
Experimental: A cell-based aequorin assay may be employed to characterize the modulatory activity of compounds on the GPR40 signaling pathway. In an exemplary assay, CHO cells are transfected in a 15 cm plated containing 14 million cells with 5 μg of GPR40 expression vector and 5 μg of Aequorin expression vector (Euroscreen) using Lipofectamine 2000 (Invitrogen). After 17-24 hours post-transfection, cells are washed with phosphate buffered saline (PBS) and detached from the tissue culture dish with 2 mL of trypsin (0.25%(w/v)). Trypsinization is halted with 28 mL of Hanks Buffered Salt Solution containing 20 mM Hepes (H/HBSS) and 0.01% fatty acid-free bovine serum albumin (BSA) or 0.625% fatty acid-free human serum albumin (HSA). Coelantrazine is added to 1 ug/mL and the cells are incubated for 2 hours at room temperature. Cells are gently mixed every 15 minutes. Compounds are dissolved in dimethyl sulfoxide for preparation of 10 mM stock solutions. Compounds are diluted in H/HBSS containing either 0.01% BSA or 0.625% HSA. Serial dilutions of the test compounds are prepared to determine dose response.
Aequorin luminescence measurements are made using an EG&G Berthold 96-well luminometer and the response is measured over a 20 second interval after cells and compounds were mixed. The area-under-curve from 2-20 seconds is plotted to determine dose reponse. The EC50 (effective concentration to reach 50% maximal response) is determined from the dose response plot. […]

T1 sequence (O14842 whole entry): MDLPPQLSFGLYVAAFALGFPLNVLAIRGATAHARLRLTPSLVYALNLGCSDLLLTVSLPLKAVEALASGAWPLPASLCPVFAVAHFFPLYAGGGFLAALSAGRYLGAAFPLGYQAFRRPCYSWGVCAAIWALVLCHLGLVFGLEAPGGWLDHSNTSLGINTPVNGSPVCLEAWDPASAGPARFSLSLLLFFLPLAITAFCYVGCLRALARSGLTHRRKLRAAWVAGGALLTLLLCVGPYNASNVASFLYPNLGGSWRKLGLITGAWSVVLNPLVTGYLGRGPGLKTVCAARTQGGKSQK

| SMILES | EC50 |
| --- | --- |
| CC#CC(CC(=O)O)c1ccc(OCc2ccc(OC)cc2)cc1 (racemic) [Compound 12, (±)-3-(4-[(4-methoxyphenyl)methoxy]phenyl)-hex-4-ynoic acid] | 100 to 1000 nM |
| Cc1ccc(C(CC(=O)O)c2ccc(OCc3cccc(Oc4ccccc4)c3)cc2)cc1 (single isomer, unassigned) [Compound 84.2] | 1000 to 10000 nM |
| Cc1ccc(C(CC(=O)O)c2ccc(OCc3cccc(Oc4ccccc4)c3)cc2)cc1 (single isomer, unassigned) [Compound 84.3] | 100 to 1000 nM |
| CN(C)[C@@H](CC(=O)O)c1ccc(OCc2cccc(Oc3ccc(F)cc3)c2)cc1 (stereo in doubt) [Compound 42.14, 3-Dimethylamino-3-{4-[3-(4-fluoro-phenoxy)-benzyloxy]-phenyl}-propionic acid] | 100 to 1000 nM |
| CC#CC(CC(=O)O)c1ccc(OCc2ccc(-c3ccccc3)cc2)cc1 (stereo not drawn) [Compound 7.3] | 1000 to 10000 nM |
| CC#CC(CC(=O)O)c1ccc(OCc2ccc(-c3cccc(OCC)c3)cc2)cc1 (stereo not drawn) [Compound 7.8] | 100 to 1000 nM |
| CC#CC(CC(=O)O)c1ccc(OCc2ccc(-c3ccc(OCC)cc3)cc2)cc1 (stereo not drawn) [Compound 7.9] | 100 to 1000 nM |
| CC#CC(CC(=O)O)c1ccc(OCc2ccc(-c3ccc(C(F)(F)F)cc3)cc2)cc1 (stereo not drawn) [Compound 7.10] | 100 to 1000 nM |
| CC#CC(CC(=O)O)c1ccc(OCc2csc(-c3ccc(OC)c(OC)c3)n2)cc1 (stereo not drawn) [Compound 8.6] | 100 to 1000 nM |
| CC#CC(CC(=O)O)c1ccc(OCc2ccc(S(=O)(=O)c3ccccc3)cc2)cc1 (stereo not drawn) [Compound 10.5] | 100 to 1000 nM |
| CC#CC(CC(=O)O)c1ccc(OCc2ccc(CCc3ccccc3)cc2)cc1 (stereo not drawn) [Compound 10.7] | 100 to 1000 nM |
| CC#CC(CC(=O)O)c1ccc(OCc2cccc(-c3ccccn3)c2)cc1 (stereo not drawn) [Compound 10.8] | 100 to 1000 nM |
| CC#CC(CC(=O)O)c1ccc(OCc2cccc(-c3cccnc3)c2)cc1 (stereo not drawn) [Compound 10.9] | 100 to 1000 nM |
| CC#CC(CC(=O)O)c1ccc(OCc2cccc(-c3ccncc3)c2)cc1 (stereo not drawn) [Compound 10.10] | 100 to 1000 nM |
| CC#CC(CC(=O)O)c1ccc(OCc2ccc(-c3cccnc3)cc2)cc1 (stereo not drawn) [Compound 10.12] | 1000 to 10000 nM |
| CC#CC(CC(=O)O)c1ccc(OCc2ccc(-c3ccncc3)cc2)cc1 (stereo not drawn) [Compound 10.13] | 100 to 1000 nM |
| CC#CC(CC(=O)O)c1ccc(OCc2cccc(-n3cccc3)c2)cc1 (stereo not drawn) [Compound 10.14] | 10 to 100 nM |
| CC#CC(CC(=O)O)c1ccc(OCc2cnn(-c3ccc(F)cc3)c2C)cc1 (stereo not drawn) [Compound 11.1] | 100 to 1000 nM |
| COc1ccc(COc2ccc(C(C#C[Si](C)(C)C)CC(=O)O)cc2)cc1 (stereo not drawn) [Compound 14.1] | 1000 to 10000 nM |
| COc1ccc(COc2ccc(C(CC(=O)O)c3ccc(F)cc3)cc2)cc1 (stereo not drawn) [Compound 14.2] | 100 to 1000 nM |
| CCC(CC(=O)O)c1ccc(OCc2ccc(OC)cc2)cc1 (stereo not drawn) [Compound 14.3] | 1000 to 10000 nM |
| COc1ccc(COc2ccc(C(C)CC(=O)O)cc2)cc1 (stereo not drawn) [Compound 14.4] | > 10000 nM |
| COCC#CC(CC(=O)O)c1ccc(OCc2ccc(OC)cc2)cc1 (stereo not drawn) [Compound 14.5] | 1000 to 10000 nM |
| COc1ccc(COc2ccc(C(C#Cc3ccccc3)CC(=O)O)cc2)cc1 (stereo not drawn) [Compound 14.6] | 1000 to 10000 nM |
| CC#CC(CC(=O)O)c1ccc(OCc2ccccc2C)cc1 (stereo not drawn) [Compound 17.6] | 100 to 1000 nM |
| CC#CC(CC(=O)O)c1ccc(OCCc2ccccc2)cc1 (stereo not drawn) [Compound 17.8] | 1000 to 10000 nM |
| CC#CC(CC(=O)O)c1ccc(OCc2nc(-c3ccc(C(F)(F)F)cc3)oc2C)cc1 (stereo not drawn) [Compound 18, 3-{4-[5-Methyl-2-(4-trifluoromethyl-phenyl)-oxazol-4-ylmethoxy]-phenyl}-hex-4-ynoic acid] | 10 to 100 nM |
| CC#CC(Cc1nnn[nH]1)c1ccc(OCc2ccccc2C)cc1 (stereo not drawn) [Compound 23, 5-{2-[4-(2-Methyl-benzyloxy)-phenyl]-pent-3-ynyl}-1H-tetrazole] | 1000 to 10000 nM |
| CC#CC(CC(=O)Nc1nccs1)c1ccc(OCc2ccc(OC)cc2)cc1 (stereo not drawn) [Compound 24, 3-[4-(4-Methoxy-benzyloxy)-phenyl]-hex-4-ynoic acid thiazol-2-ylamide] | 100 to 1000 nM |
| CC#CC(CC(=O)Nc1nnn[nH]1)c1ccc(OCc2ccc(OC)cc2)cc1 (stereo not drawn) [Compound 25.1] | 1000 to 10000 nM |

The next lines start with the values.

| EC50 | SMILES |
| --- | --- |
| 10 to 100 nM | CC#C[C@@H](CC(=O)O)c1ccc(OCc2ccccc2C)cc1 (single isomer, unassigned) [Compound 15] |
| < 10 nM | CC#C[C@@H](CC(=O)O)c1ccc(OCc2sc(-c3ccc(C)cc3)nc2C)cc1 [Compound 3, (S)-3-[4-(4-Methyl-2-p-tolyl-thiazol-5-ylmethoxy)-phenyl]-hex-4-ynoic acid] |
| 10 to 100 nM | CC#C[C@@H](CC(=O)O)c1ccc(OCc2cc(-c3ccccc3)oc2C)cc1 [Compound 5, 3-[4-(2-Methyl-5-phenyl-furan-3-ylmethoxy)-phenyl]-hex-4-ynoic acid] |
| 10 to 100 nM | CC#CC(CC(=O)O)c1ccc(OCc2cccc(-c3ccccc3)c2)cc1 (stereo not drawn) [Compound 6.1] |
| 10 to 100 nM | CC#CC(CC(=O)O)c1ccc(OCc2cccc(-c3ccccc3OCC)c2)cc1 (stereo not drawn) [Compound 6.2] |
| 10 to 100 nM | CC#CC(CC(=O)O)c1ccc(OCc2cccc(-c3ccc(OCC)cc3)c2)cc1 (stereo not drawn) [Compound 6.3] |
| 10 to 100 nM | CC#CC(CC(=O)O)c1ccc(OCc2cccc(-c3ccc(C#N)cc3)c2)cc1 (stereo not drawn) [Compound 6.7] |
| 10 to 100 nM | CC#CC(CC(=O)O)c1ccc(OCc2cccc(-c3ccccc3C(F)(F)F)c2)cc1 (stereo not drawn) [Compound 6.8] |
| 10 to 100 nM | CC#CC(CC(=O)O)c1ccc(OCc2cccc(-c3cccc(C(F)(F)F)c3)c2)cc1 (stereo not drawn) [Compound 6.9] |
| 10 to 100 nM | CC#CC(CC(=O)O)c1ccc(OCc2ccc(-c3ccccc3OCC)cc2)cc1 (stereo not drawn) [Compound 7.5] |
| 10 to 100 nM | CC#CC(CC(=O)O)c1ccc(OCc2ccc(-c3ccc(C#N)cc3)cc2)cc1 (stereo not drawn) [Compound 7.15] |
| 10 to 100 nM | CC#CC(CC(=O)O)c1ccc(OCc2csc(-c3ccc(C(F)(F)F)cc3)n2)cc1 (stereo not drawn) [Compound 8.1] |
| 10 to 100 nM | CC#CC(CC(=O)O)c1ccc(OCc2csc(-c3ccccc3)n2)cc1 (stereo not drawn) [Compound 8.2] |
| 10 to 100 nM | CC#CC(CC(=O)O)c1ccc(OCc2csc(-c3ccc(Cl)cc3)n2)cc1 (stereo not drawn) [Compound 8.3] |
| 10 to 100 nM | CC#CC(CC(=O)O)c1ccc(OCc2csc(-c3ccc(OC)cc3)n2)cc1 (stereo not drawn) [Compound 8.4] |
| 10 to 100 nM | CC#CC(CC(=O)O)c1ccc(OCc2csc(-c3ccc(C)cc3)n2)cc1 (stereo not drawn) [Compound 8.5] |
| 10 to 100 nM | CC#CC(CC(=O)O)c1ccc(OCc2sc(-c3ccc(C(F)(F)F)cc3)nc2C)cc1 (stereo not drawn) [Compound 9.1] |
| < 10 nM | CC#CC(CC(=O)O)c1ccc(OCc2sc(-c3ccc(C)cc3)nc2C)cc1 (stereo not drawn) [Compound 9.2] |
| 10 to 100 nM | CC#CC(CC(=O)O)c1ccc(OCc2sc(-c3ccccc3)nc2C)cc1 (stereo not drawn) [Compound 9.3] |
| 10 to 100 nM | CC#CC(CC(=O)O)c1ccc(OCc2sc(-c3ccc(OC)c(OC)c3)nc2C)cc1 (stereo not drawn) [Compound 9.4] |
| 10 to 100 nM | CC#CC(CC(=O)O)c1ccc(OCc2cccc(N(CC)c3ccccc3)c2)cc1 (stereo not drawn) [Compound 10.2] |
| 10 to 100 nM | CC#CC(CC(=O)O)c1ccc(OCc2cccc(Oc3ccccc3)c2)cc1 (stereo not drawn) [Compound 10.3] |
| 10 to 100 nM | CC#CC(CC(=O)O)c1ccc(OCc2ccc(-c3ccccn3)cc2)cc1 (stereo not drawn) [Compound 10.4] |
| 10 to 100 nM | CC#CC(CC(=O)O)c1ccc(OCc2ccc(Cc3ccccc3)cc2)cc1 (stereo not drawn) [Compound 10.6] |
